# In ChEMBL document CHEMBL1201862, “PubChem BioAssay data set” (2004):
#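 48-hour exposure; five concentrations; linearly interpolated endpoints. GI50 = concentration required for 50% inhibition of growth.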 Activity calls are given as the source filed them. Cut-off read from the data, not from the text of the source: active = GI50 up to about 1.1 µM and inactive = higher.
# What was measured:
# Experiment in all cases: inhibition of tumour cell growth, NCI panel, 48 h
# MDA-MB-231 = system: MDA-MB-231
# NCI/ADR-RES = system: NCI/ADR-RES
# SF-539 = system: SF-539
# OVCAR-5 = system: OVCAR-5
# DU-145 = system: DU-145
# HOP-62 = system: HOP-62
# NCI-H23 = system: NCI-H23
# Malme-3M = system: Malme-3M
# PC-3 = system: PC-3
# A549 = system: A549
# EKVX = system: EKVX
# CAKI-1 = system: CAKI-1
# IGROV-1 = system: IGROV-1
# Hs-578T = system: Hs-578T
# LOX IMVI = system: LOX IMVI
# UACC-62 = system: UACC-62
# SNB-75 = system: SNB-75
# UO-31 = system: UO-31
# OVCAR-3 = system: OVCAR-3
# TK-10 = system: TK-10
SMILES,GI50 (MDA-MB-231),GI50 (NCI/ADR-RES),GI50 (SF-539),GI50 (OVCAR-5),GI50 (DU-145),GI50 (HOP-62),GI50 (NCI-H23),GI50 (Malme-3M),GI50 (PC-3),GI50 (A549),GI50 (EKVX),GI50 (CAKI-1),GI50 (IGROV-1),GI50 (Hs-578T),GI50 (LOX IMVI),GI50 (UACC-62),GI50 (SNB-75),GI50 (UO-31),GI50 (OVCAR-3),GI50 (TK-10)
O=C1Nc2ccccc2C1=Nc1ccc(S(=O)(=O)Nc2nccs2)cc1,> 100 µM (inactive),> 100 µM (inactive),48.3 µM (inactive),> 100 µM (inactive),> 100 µM (inactive),> 100 µM (inactive),> 100 µM (inactive),> 100 µM (inactive),> 100 µM (inactive),> 100 µM (inactive),> 100 µM (inactive),> 100 µM (inactive),> 100 µM (inactive),> 100 µM (inactive),> 100 µM (inactive),> 100 µM (inactive),> 100 µM (inactive),> 100 µM (inactive),> 100 µM (inactive),> 100 µM (inactive)
O=C(O)c1ccc2c(O)c(O)ccc2c1,29 µM (inactive),19.5 µM (inactive),4.81 µM (inactive),26.3 µM (inactive),39.8 µM (inactive),20.7 µM (inactive),22 µM (inactive),38.9 µM (inactive),33.7 µM (inactive),28 µM (inactive),20.8 µM (inactive),21.6 µM (inactive),19.7 µM (inactive),27.2 µM (inactive),5.38 µM (inactive),> 10 µM (inactive),10.4 µM (inactive),19.5 µM (inactive),18.8 µM (inactive),13.8 µM (inactive)
CC1(C)OCC(C2OC3OC(C)(C)OC3C2N)O1 (stereo not given),> 100 µM (inactive),> 100 µM (inactive),> 100 µM (inactive),> 100 µM (inactive),> 100 µM (inactive),> 100 µM (inactive),> 100 µM (inactive),> 100 µM (inactive),> 100 µM (inactive),> 100 µM (inactive),> 100 µM (inactive),> 100 µM (inactive),> 100 µM (inactive),> 100 µM (inactive),> 100 µM (inactive),> 100 µM (inactive),> 100 µM (inactive),> 100 µM (inactive),> 100 µM (inactive),> 100 µM (inactive)
O=C(O)C(F)(OC(F)(F)C(F)(OC(F)(F)C(F)(F)C(F)(F)F)C(F)(F)F)C(F)(F)F (stereo not given),> 100 µM (inactive),> 100 µM (inactive),> 100 µM (inactive),> 100 µM (inactive),> 100 µM (inactive),> 100 µM (inactive),> 100 µM (inactive),> 100 µM (inactive),59.7 µM (inactive),> 100 µM (inactive),> 100 µM (inactive),> 100 µM (inactive),> 100 µM (inactive),> 100 µM (inactive),> 100 µM (inactive),> 100 µM (inactive),> 100 µM (inactive),> 100 µM (inactive),> 100 µM (inactive),> 100 µM (inactive)
Cc1cc(S(=O)(=O)Nc2nc(Nc3ccc(Cl)cc3)n[nH]2)c(S)cc1Cl,> 100 µM (inactive),> 100 µM (inactive),> 100 µM (inactive),> 100 µM (inactive),> 100 µM (inactive),52.5 µM (inactive),82.8 µM (inactive),> 100 µM (inactive),> 100 µM (inactive),> 100 µM (inactive),> 100 µM (inactive),36 µM (inactive),70.5 µM (inactive),86.5 µM (inactive),75.7 µM (inactive),18.9 µM (inactive),> 100 µM (inactive),79.1 µM (inactive),> 100 µM (inactive),> 100 µM (inactive)
COc1cc(OC)c2c(=O)c(OC)c(-c3ccc4c(c3)OCO4)oc2c1,49.9 µM (inactive),46.9 µM (inactive),18.1 µM (inactive),> 100 µM (inactive),48.5 µM (inactive),23.5 µM (inactive),23.2 µM (inactive),> 100 µM (inactive),84.7 µM (inactive),> 100 µM (inactive),41.7 µM (inactive),21 µM (inactive),22.1 µM (inactive),35.1 µM (inactive),15.8 µM (inactive),26 µM (inactive),15.9 µM (inactive),> 100 µM (inactive),> 100 µM (inactive),45 µM (inactive)
N=C(N)NS(=O)(=O)c1ccc(NCc2cccc3c(=O)c4ccc(Cl)cc4oc23)cc1,> 10.8 µM (inactive),7.8 µM (inactive),6.11 µM (inactive),> 10.1 µM (inactive),5.57 µM (inactive),> 10.2 µM (inactive),8.55 µM (inactive),4.59 µM (inactive),1.4 µM (inactive),> 6.75 µM (inactive),> 9.53 µM (inactive),8.53 µM (inactive),3.43 µM (inactive),4.37 µM (inactive),4.48 µM (inactive),6.19 µM (inactive),3.08 µM (inactive),5.41 µM (inactive),> 8.47 µM (inactive),> 10.4 µM (inactive)
NC(CNO)C(=O)O (stereo not given),> 100 µM (inactive),> 100 µM (inactive),> 100 µM (inactive),> 100 µM (inactive),> 100 µM (inactive),> 100 µM (inactive),> 100 µM (inactive),> 100 µM (inactive),> 100 µM (inactive),> 100 µM (inactive),> 100 µM (inactive),> 100 µM (inactive),> 100 µM (inactive),> 100 µM (inactive),> 100 µM (inactive),> 100 µM (inactive),> 100 µM (inactive),> 100 µM (inactive),> 100 µM (inactive),> 100 µM (inactive)
COc1cc(C[S+]([O-])c2ccc(O)cc2)cc(OC)c1OC (stereo not given),> 100 µM (inactive),> 100 µM (inactive),> 100 µM (inactive),> 100 µM (inactive),> 100 µM (inactive),> 100 µM (inactive),> 100 µM (inactive),> 100 µM (inactive),> 100 µM (inactive),> 100 µM (inactive),> 100 µM (inactive),> 100 µM (inactive),> 100 µM (inactive),> 100 µM (inactive),> 100 µM (inactive),> 100 µM (inactive),> 100 µM (inactive),66.2 µM (inactive),> 100 µM (inactive),> 100 µM (inactive)
COC(=O)Cc1c2n(c3ccccc13)C(=O)N1c3ccccc3C(CC(=O)OC)C21 (stereo not given),17.3 µM (inactive),53.1 µM (inactive),16.1 µM (inactive),32.9 µM (inactive),> 100 µM (inactive),17.4 µM (inactive),15.7 µM (inactive),81.3 µM (inactive),51.5 µM (inactive),34.2 µM (inactive),45.3 µM (inactive),21.1 µM (inactive),7.41 µM (inactive),21.1 µM (inactive),63.5 µM (inactive),23.5 µM (inactive),7.45 µM (inactive),54.5 µM (inactive),55.7 µM (inactive),14.9 µM (inactive)
COc1cc([C@@H]2c3[nH]c4ccccc4c3C(Nc3ccc([N+](=O)[O-])cc3)[C@H]3COC(=O)N23)cc(OC)c1O (stereo not given in full),0.352 µM (active),> 86.3 µM (inactive),0.124 µM (active),0.369 µM (active),0.321 µM (active),0.0873 µM (active),0.111 µM (active),0.161 µM (active),0.698 µM (active),0.0531 µM (active),1.78 µM (inactive),0.247 µM (active),0.406 µM (active),0.305 µM (active),0.0822 µM (active),0.195 µM (active),0.175 µM (active),1.27 µM (inactive),0.382 µM (active),0.446 µM (active)
CC(=O)Nc1ccc(CNc2cc(=O)n(C)c(=O)[nH]2)cc1,> 100 µM (inactive),> 100 µM (inactive),> 100 µM (inactive),> 100 µM (inactive),> 100 µM (inactive),> 100 µM (inactive),> 100 µM (inactive),> 100 µM (inactive),> 100 µM (inactive),> 100 µM (inactive),> 100 µM (inactive),> 100 µM (inactive),> 100 µM (inactive),> 100 µM (inactive),> 100 µM (inactive),> 100 µM (inactive),> 100 µM (inactive),> 100 µM (inactive),> 100 µM (inactive),> 100 µM (inactive)
O=C(Nc1cc(C(=O)Nc2cccc(S(=O)(=O)O)c2)cc(C(=O)Nc2cccc(S(=O)(=O)O)c2)c1)c1cccc(C(=O)Nc2cc(C(=O)Nc3cccc(S(=O)(=O)O)c3)cc(C(=O)Nc3cccc(S(=O)(=O)O)c3)c2)c1,> 100 µM (inactive),> 100 µM (inactive),> 100 µM (inactive),> 100 µM (inactive),> 100 µM (inactive),> 100 µM (inactive),> 100 µM (inactive),> 100 µM (inactive),> 100 µM (inactive),> 100 µM (inactive),> 100 µM (inactive),> 100 µM (inactive),> 100 µM (inactive),> 100 µM (inactive),> 100 µM (inactive),> 100 µM (inactive),> 100 µM (inactive),> 100 µM (inactive),> 100 µM (inactive),> 100 µM (inactive)
Cc1ncc([N+](=O)[O-])n1CCNS(=O)(=O)CCCn1ccnc1[N+](=O)[O-],> 100 µM (inactive),> 100 µM (inactive),> 100 µM (inactive),> 100 µM (inactive),> 100 µM (inactive),> 100 µM (inactive),> 100 µM (inactive),> 100 µM (inactive),> 100 µM (inactive),> 100 µM (inactive),> 100 µM (inactive),> 100 µM (inactive),> 100 µM (inactive),> 100 µM (inactive),> 100 µM (inactive),> 100 µM (inactive),> 100 µM (inactive),> 100 µM (inactive),> 100 µM (inactive),> 100 µM (inactive)
